From ChEMBL document CHEMBL1201862, “PubChem BioAssay data set” (2004)
Active and inactive are the calls of the source.

Key:
[1] = system: Streptococcus sp. 'group A'; assay: Streptococcus pyogenes SK(-)GAS viability under kanamycin – luminescence, BacTiterGlo, confirmation, counter-screen for streptokinase expression inhibitor project, dose response (AID 1900); type: functional, organism-based
Streptokinase A = biological target: T1, Streptokinase A (Streptococcus pyogenes serotype M1, UniProt P10520); assay: viability-normalized secreted streptokinase activity reduction – plasminogen activation absorbance, OD405, dose response (AID 1914); type: functional, Streptococcus pyogenes M1 GAS;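 further: secreted streptokinase activity via plasminogen activation per viability signal from cell pellet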
T1 sequence (P10520 whole entry): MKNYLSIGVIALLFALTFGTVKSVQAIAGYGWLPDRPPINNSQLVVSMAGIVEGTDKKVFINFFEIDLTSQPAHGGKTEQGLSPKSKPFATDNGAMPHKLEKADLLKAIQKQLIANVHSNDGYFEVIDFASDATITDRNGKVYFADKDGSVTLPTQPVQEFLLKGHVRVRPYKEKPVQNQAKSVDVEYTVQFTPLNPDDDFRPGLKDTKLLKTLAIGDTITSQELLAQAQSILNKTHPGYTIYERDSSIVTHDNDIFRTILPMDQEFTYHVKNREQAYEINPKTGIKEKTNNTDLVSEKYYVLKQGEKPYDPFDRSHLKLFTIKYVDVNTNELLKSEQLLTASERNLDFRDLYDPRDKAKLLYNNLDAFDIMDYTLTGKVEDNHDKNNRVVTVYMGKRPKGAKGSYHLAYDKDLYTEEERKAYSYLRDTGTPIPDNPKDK

[2] = Trypanosoma cruzi growth suppression in host cells – NIH3T3 host cells, beta-gal luminescence, confirmation (AID 2044); type: functional, cell-based;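 further: intracellular parasites grown in NIH/3T3 mouse fibroblasts as host cells; luminescent beta-galactosidase reporter signal from transgenic T. cruzi replicating inside host cells; inhibitors lower the luminescence signal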
[3] = NIH3T3 cell viability loss – ATP luminescence, mouse fibroblasts, counter-screen, dose response (AID 2010); type: functional, cell-based;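 further: cells exposed to compound for about 90 hours before reading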
Streptococcus = assay: GAS UMAA2166 growth inhibition – luminescence, BacTiterGlo, counter-screen for streptokinase expression inhibitor project, dose response (AID 1915); type: functional, organism-based;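 further: potency for reduction of bacterial viability or growth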
[4] = biological target: T2, Ubiquitin-conjugating enzyme E2 N (Homo sapiens, UniProt P61088); type: functional;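 further: Dose-response confirmation in a TR-FRET assay detecting UBC13-driven polyubiquitin chain formation, inhibition measured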
T2 sequence (P61088 whole entry): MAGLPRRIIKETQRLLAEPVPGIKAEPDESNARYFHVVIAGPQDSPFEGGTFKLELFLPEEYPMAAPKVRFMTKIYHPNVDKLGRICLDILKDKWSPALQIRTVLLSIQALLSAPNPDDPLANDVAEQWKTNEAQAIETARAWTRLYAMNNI

[5] = activation of miR-122 Renilla sensor silencing – cell-based, Huh7 psiCHECK-miR122, Renilla luciferase, cherry-picked, dose response (AID 651956); type: functional;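 further: huh7 hepatoma cells stably carrying a psiCHECK-2 miR-122 sensor plasmid; renilla luciferase signal reporting endogenous miR-122 activity after 48 h compound exposure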
[6] = Fluorescence-based cell-based high throughput dose response assay for inhibitors of the interaction of nucleotide-binding oligomerization domain containing 2 (NOD2) and the receptor-interacting serine-threonine kinase 2 (RIPK2).; type: functional; settings: Homo sapiens
Beta Lactamase = Beta Lactamase (Pseudomonas aeruginosa, UniProt Q932Y6); assay: BLA reporter interference, concentration series – BLA reporter cells, FRET fluorescence, artefact control for NOD2-RIPK2 interaction inhibitor project, dose response (AID 651552); type: functional, cell-based
Beta Lactamase, sequence (Q932Y6 whole entry): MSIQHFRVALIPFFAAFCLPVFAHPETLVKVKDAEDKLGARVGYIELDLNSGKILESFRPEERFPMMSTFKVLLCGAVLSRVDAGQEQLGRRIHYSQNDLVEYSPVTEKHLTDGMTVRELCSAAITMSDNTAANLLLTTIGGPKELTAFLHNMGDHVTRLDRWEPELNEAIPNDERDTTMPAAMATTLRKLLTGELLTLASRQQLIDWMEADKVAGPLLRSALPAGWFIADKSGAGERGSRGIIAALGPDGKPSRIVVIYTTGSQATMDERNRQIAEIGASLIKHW

[7] = biological target: T3, DNA repair protein RAD52 homolog (Homo sapiens, UniProt P43351); type: functional, biochemical
T3 sequence (P43351 whole entry): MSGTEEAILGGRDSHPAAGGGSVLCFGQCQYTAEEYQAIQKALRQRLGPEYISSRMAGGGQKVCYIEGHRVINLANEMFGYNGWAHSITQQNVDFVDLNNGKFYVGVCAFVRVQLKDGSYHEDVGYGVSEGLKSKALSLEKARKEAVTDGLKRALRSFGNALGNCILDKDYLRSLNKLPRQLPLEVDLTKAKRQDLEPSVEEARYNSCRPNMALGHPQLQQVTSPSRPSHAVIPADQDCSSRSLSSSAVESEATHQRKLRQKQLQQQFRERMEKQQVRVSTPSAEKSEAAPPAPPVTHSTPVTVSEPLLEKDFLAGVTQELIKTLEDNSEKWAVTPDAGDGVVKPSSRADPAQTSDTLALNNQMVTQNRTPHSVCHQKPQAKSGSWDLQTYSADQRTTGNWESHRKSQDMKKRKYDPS

Paired box protein Pax-8 = Paired box protein Pax-8 (Homo sapiens, UniProt Q06710); assay: PAX8 transcriptional activity inhibition in RMG-I – RMG-I cells, luciferase, cherry-pick, dose response (AID 687027); type: functional, cell-based;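 further: luciferase reporter driven by Pax8 target thyroperoxidase promoter measured by SteadyGlo luminescence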
Paired box protein Pax-8, sequence (Q06710 whole entry): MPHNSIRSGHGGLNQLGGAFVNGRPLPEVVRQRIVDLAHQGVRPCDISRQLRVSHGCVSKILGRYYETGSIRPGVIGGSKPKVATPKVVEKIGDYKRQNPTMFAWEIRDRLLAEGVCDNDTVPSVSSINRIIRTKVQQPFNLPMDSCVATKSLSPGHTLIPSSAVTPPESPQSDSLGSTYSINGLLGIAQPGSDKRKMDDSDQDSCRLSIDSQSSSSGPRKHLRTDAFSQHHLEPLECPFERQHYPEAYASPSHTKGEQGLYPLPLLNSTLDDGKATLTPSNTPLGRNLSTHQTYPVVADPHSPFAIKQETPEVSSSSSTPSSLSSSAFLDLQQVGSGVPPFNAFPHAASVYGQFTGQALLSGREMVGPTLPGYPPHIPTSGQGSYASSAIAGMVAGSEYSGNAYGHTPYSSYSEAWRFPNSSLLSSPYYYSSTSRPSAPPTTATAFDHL

[8] = general cell-killing toxicity readout – plate reader, dry powder samples, cytotoxicity control for PAX8 inhibitor project, dose response (AID 743021); type: functional, cell-based
[9] = biological target: Fructose-bisphosphate aldolase (Mycobacterium tuberculosis, UniProt P9WQA3); assay: Fluorescence-based biochemical high throughput dose response assay for inhibitors of the fructose-bisphosphate aldolase (FBA) of M. tuberculosis.; type: functional
Fructose-bisphosphate aldolase, sequence (P9WQA3 whole entry): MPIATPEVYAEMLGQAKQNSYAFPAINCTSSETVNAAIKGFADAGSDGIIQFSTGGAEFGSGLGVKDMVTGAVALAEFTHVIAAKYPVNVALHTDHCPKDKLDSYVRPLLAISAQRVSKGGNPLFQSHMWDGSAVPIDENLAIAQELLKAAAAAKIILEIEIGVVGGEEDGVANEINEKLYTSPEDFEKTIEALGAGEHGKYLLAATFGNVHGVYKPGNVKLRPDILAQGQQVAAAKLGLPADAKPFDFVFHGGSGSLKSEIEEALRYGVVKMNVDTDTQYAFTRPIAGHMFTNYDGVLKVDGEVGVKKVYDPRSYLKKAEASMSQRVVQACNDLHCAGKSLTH

[10] = T. cruzi growth inhibition in host cells, dose response, cell-based, plate reader, dry powder, set 2 (AID 652275); type: functional
Protein Wnt-3a = Protein Wnt-3a (Mus musculus, UniProt P27467); assay: SAR analysis of small molecule antagonists of Gli-SUFU in a Wnt3a luminescent reporter assay.; type: functional
Protein Wnt-3a, sequence (P27467 whole entry): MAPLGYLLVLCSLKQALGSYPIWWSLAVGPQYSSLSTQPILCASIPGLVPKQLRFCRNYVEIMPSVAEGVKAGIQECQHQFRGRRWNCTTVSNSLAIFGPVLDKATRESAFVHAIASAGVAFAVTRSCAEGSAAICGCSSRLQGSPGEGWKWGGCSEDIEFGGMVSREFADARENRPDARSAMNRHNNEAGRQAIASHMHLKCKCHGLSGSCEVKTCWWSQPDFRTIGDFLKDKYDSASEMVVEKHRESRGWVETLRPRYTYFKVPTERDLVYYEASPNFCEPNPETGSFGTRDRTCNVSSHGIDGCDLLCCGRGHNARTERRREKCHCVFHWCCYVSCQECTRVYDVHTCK

[11] = biological target: T4, Microphthalmia-associated transcription factor (Homo sapiens, UniProt O75030); assay: reducers of TRPM1 reporter luminescence, concentration series – cell-based, SK-MEL-5, cherry-picked, set 3, MITF inhibitor project, dose response (AID 493073); type: functional;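 further: SK-MEL-5 melanoma cells with luciferase driven by the MITF target TRPM1 promoter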
T4 sequence (O75030 whole entry): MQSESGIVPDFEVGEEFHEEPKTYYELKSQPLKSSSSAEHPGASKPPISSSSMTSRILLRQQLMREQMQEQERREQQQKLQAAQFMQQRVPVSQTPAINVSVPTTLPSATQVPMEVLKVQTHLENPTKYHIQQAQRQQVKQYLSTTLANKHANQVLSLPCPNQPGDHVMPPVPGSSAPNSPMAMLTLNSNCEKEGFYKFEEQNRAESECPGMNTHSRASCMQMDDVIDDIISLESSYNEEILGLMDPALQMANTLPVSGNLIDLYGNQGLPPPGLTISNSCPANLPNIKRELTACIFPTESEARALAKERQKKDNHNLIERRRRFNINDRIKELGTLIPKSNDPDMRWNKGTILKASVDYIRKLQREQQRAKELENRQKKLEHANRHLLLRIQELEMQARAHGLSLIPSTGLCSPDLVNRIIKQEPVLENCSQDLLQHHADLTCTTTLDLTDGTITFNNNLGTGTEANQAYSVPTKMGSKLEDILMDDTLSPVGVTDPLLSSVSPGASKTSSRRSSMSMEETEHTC

[12] = biological target: Nuclear receptor subfamily 5 group A member 2 (Homo sapiens, UniProt O00482); type: functional, cell-based;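 further: HEK293T cells transfected with LRH-1 and a StAR promoter luciferase reporter; potency for inhibitors that lower LRH-1 driven reporter light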
Nuclear receptor subfamily 5 group A member 2, sequence (O00482 whole entry): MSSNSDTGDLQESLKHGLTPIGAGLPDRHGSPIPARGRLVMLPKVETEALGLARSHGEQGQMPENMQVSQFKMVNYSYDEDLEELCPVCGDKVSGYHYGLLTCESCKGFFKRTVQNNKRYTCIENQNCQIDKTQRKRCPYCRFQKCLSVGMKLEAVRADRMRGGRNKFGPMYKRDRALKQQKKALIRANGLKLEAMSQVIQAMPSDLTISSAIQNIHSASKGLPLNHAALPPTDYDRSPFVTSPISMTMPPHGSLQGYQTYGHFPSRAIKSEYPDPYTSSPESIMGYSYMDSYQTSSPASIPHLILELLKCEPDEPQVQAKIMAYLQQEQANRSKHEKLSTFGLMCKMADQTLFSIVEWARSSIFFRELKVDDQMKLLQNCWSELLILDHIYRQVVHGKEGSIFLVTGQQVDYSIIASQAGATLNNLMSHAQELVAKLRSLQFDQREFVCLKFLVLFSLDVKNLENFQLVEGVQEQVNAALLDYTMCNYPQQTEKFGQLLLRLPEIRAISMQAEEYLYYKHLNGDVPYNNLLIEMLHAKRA

Steroidogenic factor 1 = Steroidogenic factor 1 (Homo sapiens, UniProt Q13285); assay: Counterscreen for inverse agonists of the liver receptor homolog-1 (LRH-1; NR5A2): Luminescence-based cell-based high throughput dose response assay to identify inverse agonists of the Steroidogenic Factor 1 Nuclear Receptor (SF1; NR5A1).; type: functional
Steroidogenic factor 1, sequence (Q13285 whole entry): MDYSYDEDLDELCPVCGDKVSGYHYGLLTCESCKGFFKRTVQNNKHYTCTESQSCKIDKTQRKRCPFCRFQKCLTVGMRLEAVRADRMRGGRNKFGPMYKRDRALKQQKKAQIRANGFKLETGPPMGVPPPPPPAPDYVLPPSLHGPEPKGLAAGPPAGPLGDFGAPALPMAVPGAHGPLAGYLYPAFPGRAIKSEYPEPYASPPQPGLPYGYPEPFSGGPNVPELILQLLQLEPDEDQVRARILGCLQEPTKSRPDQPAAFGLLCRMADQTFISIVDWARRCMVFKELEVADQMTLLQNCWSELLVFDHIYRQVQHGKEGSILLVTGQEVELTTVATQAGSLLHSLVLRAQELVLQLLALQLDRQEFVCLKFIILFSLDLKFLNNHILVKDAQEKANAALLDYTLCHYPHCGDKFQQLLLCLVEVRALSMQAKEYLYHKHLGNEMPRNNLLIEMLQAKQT

[13] = nonselective StAR promoter luciferase inhibitors – cell-based, luminescence, luciferase reporter, counter-screen for LRH-1 inverse agonist project, dose response (AID 651969); type: functional
[14] = biological target: Dual specificity tyrosine-phosphorylation-regulated kinase 1A (Rattus norvegicus, UniProt Q63470); type: biochemical, Homo sapiens

Compound: CC(C)(C)c1cc(NCCCn2ccnc2)n2ncc(-c3ccc(Cl)cc3)c2n1
- EC50 [1]: 1.91 µM (active)
- EC50 (Streptokinase A): > 150 µM (not active)
- EC50 [2]: 1.49 µM (active)
- EC50 [3]: 5.5 µM (active)
- EC50 (Streptococcus): 6.12 µM (active)
- IC50 [4]: > 20 µM (inactive)
- AC50 [5]: 1.45 µM (active)

Compound: CCSc1ccc(-c2cc(NC=O)c3ncc(-c4cccc(C(=O)NCCN(C)C)c4)n3c2)cc1
- IC50 [6]: 11.8 µM (inactive)
- IC50 (Beta Lactamase): 20 µM (inactive)
- AC50 [7]: 1.14 µM (active)
- AC50 (Paired box protein Pax-8): 9.88 µM (active)
- AC50 [8]: 53.9 µM (active)

Compound: CC(=O)NCCNC(=O)C1Cc2c(-c3ccc4c(c3)OCO4)ccnc2O1 (centres undefined)
- IC50 [9]: 1.73 µM (active)

Compound: C[C@H]1CN([C@@H](C)CO)C(=O)c2cccc(NC(=O)c3ccncc3)c2O[C@@H]1CN(C)Cc1ccc(F)c(F)c1
- AC50 [10]: 24.6 nM (active)

Compound: O=C(Nc1cc(N2CCCCC2)ncn1)c1cccc2ccccc12
- IC50 (Protein Wnt-3a): > 21.8 µM (inactive)

Compound: CC1CCCCN1c1cc(NC(=O)c2ccccc2)ncn1 (centres undefined)
- IC50 (Protein Wnt-3a): > 21.8 µM (inactive)

Compound: Cc1ccccc1OCC(=O)N/N=C/c1ccc([N+](=O)[O-])o1
- EC50 [2]: 0.151 µM (active)
- EC50 [3]: > 30 µM (not active)
- AC50 [11]: 8.22 µM (active)
- IC50 [12]: 10.6 µM (inactive)
- IC50 (Steroidogenic factor 1): 6.24 µM (active)
- IC50 [13]: 29.9 µM (inactive)

Compound: CC1(C)C=Cc2cc3ccc(=O)oc3cc2O1 [XANTHYLETIN]
- AC50 [14]: 8.65 µM (active)
- IC50 [9]: > 1.11 µM (active)
